Reference: PubChem BioAssay AID256 (DTP/NCI, 2004)
Values joined by “and” are separate entries in the source; they are usually repeats but may differ in a detail not shown here. Identical values can stand only once. Inconclusive results and toxic doses are left out.

Test system: CD2F1 mice, L1210 leukemia ip, survival T/C
Test: NCI In Vivo Anticancer Drug Screen. Data for tumor model L1210 Leukemia (intraperitoneal) in CD2F1 (CDF1) mice
Conditions: higher = longer survival
Procedure, shortened: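 Ratio T/C, where T is the treated-group value and C the vehicle-dosed control value, from mice implanted with a transplantable tumor.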

[1] = endpoint: mean survival time, dose: 100.0 mg/kg/injection, schedule: Q01DX001 (ip), vehicle: saline with Tween-80
[2] = endpoint: mean survival time, dose: 200.0 mg/kg/injection, schedule: Q01DX001 (ip), vehicle: saline with Tween-80
[3] = endpoint: mean survival time, dose: 400.0 mg/kg/injection, schedule: Q01DX001 (ip), vehicle: saline with Tween-80
[4] = endpoint: mean survival time, dose: 100.0 mg/kg/injection, schedule: Q01DX009 (ip), vehicle: saline with Tween-80
[5] = endpoint: mean survival time, dose: 200.0 mg/kg/injection, schedule: Q01DX009 (ip), vehicle: saline with Tween-80
[6] = endpoint: mean survival time, dose: 400.0 mg/kg/injection, schedule: Q01DX009 (ip), vehicle: saline with Tween-80
[7] = endpoint: mean survival time, dose: 100.0 mg/kg/injection, schedule: Q04DX003 (ip), vehicle: saline with Tween-80
[8] = endpoint: mean survival time, dose: 200.0 mg/kg/injection, schedule: Q04DX003 (ip), vehicle: saline with Tween-80
[9] = endpoint: mean survival time, dose: 400.0 mg/kg/injection, schedule: Q04DX003 (ip), vehicle: saline with Tween-80

## CNNCc1ccc(C(=O)NC(N)=O)cc1
endpoint: mean survival time, dose: 8.0 mg/kg/injection, schedule: Q03HX024 (ip), vehicle: saline
  T/C: 124 % of control
endpoint: mean survival time, dose: 16.0 mg/kg/injection, schedule: Q01DX005 (iv), vehicle: saline
  T/C: 123 % of control
endpoint: mean survival time, dose: 16.0 mg/kg/injection, schedule: Q03HX008 (ip), vehicle: saline
  T/C: 112 % of control
endpoint: mean survival time, dose: 16.0 mg/kg/injection, schedule: Q03HX016 (ip), vehicle: saline
  T/C: 110 % of control
endpoint: mean survival time, dose: 16.0 mg/kg/injection, schedule: Q03HX024 (ip), vehicle: saline
  T/C: 124 % of control
endpoint: mean survival time, dose: 32.0 mg/kg/injection, schedule: Q01DX005 (iv), vehicle: saline
  T/C: 119 % of control
endpoint: mean survival time, dose: 32.0 mg/kg/injection, schedule: Q01DX008 (ip), vehicle: saline
  T/C: 119 % of control
endpoint: mean survival time, dose: 32.0 mg/kg/injection, schedule: Q03HX008 (ip), vehicle: saline
  T/C: 115 % of control
endpoint: mean survival time, dose: 32.0 mg/kg/injection, schedule: Q03HX016 (ip), vehicle: saline
  T/C: 120 % of control
endpoint: mean survival time, dose: 64.0 mg/kg/injection, schedule: Q01DX005 (iv), vehicle: saline
  T/C: 112 % of control
endpoint: mean survival time, dose: 64.0 mg/kg/injection, schedule: Q03HX008 (ip), vehicle: saline
  T/C: 117 % of control
endpoint: mean survival time, dose: 64.0 mg/kg/injection, schedule: Q04DX003 (ip), vehicle: saline
  T/C: 121 % of control
endpoint: mean survival time, dose: 128.0 mg/kg/injection, schedule: Q01DX001 (ip), vehicle: saline
  T/C: 107 % of control
endpoint: mean survival time, dose: 128.0 mg/kg/injection, schedule: Q01DX001 (iv), vehicle: saline
  T/C: 103 % of control
endpoint: mean survival time, dose: 128.0 mg/kg/injection, schedule: Q01DX001 (oral), vehicle: saline
  T/C: 114 % of control
endpoint: mean survival time, dose: 128.0 mg/kg/injection, schedule: Q01DX005 (iv), vehicle: saline
  T/C: 122 % of control
endpoint: mean survival time, dose: 128.0 mg/kg/injection, schedule: Q01DX009 (oral), vehicle: saline
  T/C: 164 % of control
endpoint: mean survival time, dose: 128.0 mg/kg/injection, schedule: Q04DX003 (ip), vehicle: saline
  T/C: 118 % of control
endpoint: mean survival time, dose: 128.0 mg/kg/injection, schedule: Q08DX002 (ip), vehicle: saline
  T/C: 116 % of control
endpoint: mean survival time, dose: 222.0 mg/kg/injection, schedule: Q01DX Z (ip), vehicle: saline
  T/C: 162 % of control
endpoint: mean survival time, dose: 256.0 mg/kg/injection, schedule: Q01DX001 (ip), vehicle: saline
  T/C: 120 % of control
endpoint: mean survival time, dose: 256.0 mg/kg/injection, schedule: Q01DX001 (iv), vehicle: saline
  T/C: 106 % of control
endpoint: mean survival time, dose: 256.0 mg/kg/injection, schedule: Q01DX001 (oral), vehicle: saline
  T/C: 117 % of control
endpoint: mean survival time, dose: 256.0 mg/kg/injection, schedule: Q01DX009 (oral), vehicle: saline
  T/C: 169 % of control
endpoint: mean survival time, dose: 256.0 mg/kg/injection, schedule: Q04DX003 (ip), vehicle: saline
  T/C: 121 % of control
endpoint: mean survival time, dose: 256.0 mg/kg/injection, schedule: Q08DX002 (ip), vehicle: saline
  T/C: 123 % of control
endpoint: mean survival time, dose: 333.0 mg/kg/injection, schedule: Q01DX Z (ip), vehicle: saline
  T/C: 120 % of control
endpoint: mean survival time, dose: 512.0 mg/kg/injection, schedule: Q01DX001 (ip), vehicle: saline
  T/C: 124 % of control
endpoint: mean survival time, dose: 512.0 mg/kg/injection, schedule: Q01DX001 (iv), vehicle: saline
  T/C: 114 % of control
endpoint: mean survival time, dose: 512.0 mg/kg/injection, schedule: Q08DX002 (ip), vehicle: saline
  T/C: 118 % of control

## C(=N\Nc1nc2ccccc2s1)/c1ccccc1
endpoint: mean survival time, dose: 100.0 mg/kg/injection, schedule: Q04DX003 (ip), vehicle: Klucel (hydroxypropylcellulose) (HPC)
  T/C: 100 % of control
endpoint: mean survival time, dose: 200.0 mg/kg/injection, schedule: Q04DX003 (ip), vehicle: Klucel (hydroxypropylcellulose) (HPC)
  T/C: 105 % of control
endpoint: mean survival time, dose: 400.0 mg/kg/injection, schedule: Q04DX003 (ip), vehicle: Klucel (hydroxypropylcellulose) (HPC)
  T/C: 92 % of control

## CCOC(=O)NC(NC(=O)OCC)C(Cl)Cl
[1]
  T/C: 103 % of control
[2]
  T/C: 105 % of control
[3]
  T/C: 97 % of control

## CC1CCCN(N=Nc2ccc(Br)cc2-c2nc(N)c3cc(Br)ccc3n2)C1 (centres undefined)
endpoint: mean survival time, dose: 100.0 mg/kg/injection, schedule: Q01DX001 (ip), vehicle: Klucel (hydroxypropylcellulose) (HPC)
  T/C: 103 % of control
endpoint: mean survival time, dose: 400.0 mg/kg/injection, schedule: Q01DX001 (ip), vehicle: Klucel (hydroxypropylcellulose) (HPC)
  T/C: 90 % of control

## CNCCN=c1ccc2c3c1c(O)c1c(O)ccc(=O)c1c3[nH]n2CCNCCO
endpoint: median survival time, dose: 0.37 mg/kg/injection, schedule: Q01DX009 (ip), vehicle: water
  T/C: 152 % of control and 207 % of control
endpoint: median survival time, dose: 0.75 mg/kg/injection, schedule: Q01DX009 (ip), vehicle: water
  T/C: 182 % of control and 195 % of control
endpoint: median survival time, dose: 1.5 mg/kg/injection, schedule: Q01DX009 (ip), vehicle: water
  T/C: 154 % of control and 195 % of control
endpoint: median survival time, dose: 3.0 mg/kg/injection, schedule: Q01DX009 (ip), vehicle: water
  T/C: 264 % of control and 280 % of control
endpoint: median survival time, dose: 3.12 mg/kg/injection, schedule: Q01DX009 (ip), vehicle: water
  T/C: 337 % of control
endpoint: median survival time, dose: 6.0 mg/kg/injection, schedule: Q01DX009 (ip), vehicle: water
  T/C: 120 % of control and 103 % of control
endpoint: median survival time, dose: 6.25 mg/kg/injection, schedule: Q01DX009 (ip), vehicle: water
  T/C: 120 % of control

## O=C(/C=C/c1ccccc1)NC1CC1
[1]
  T/C: 94 % of control
[2]
  T/C: 89 % of control
[3]
  T/C: 93 % of control

## CC1(C(=O)O)CC1(C)C(=O)O (centres undefined)
[4]
  T/C: 93 % of control
[5]
  T/C: 91 % of control
[6]
  T/C: 90 % of control

## NNC(=O)CCCCC(=O)NN
endpoint: mean survival time, dose: 100.0 mg/kg/injection, schedule: Q04DX003 (ip), vehicle: saline
  T/C: 97 % of control
endpoint: mean survival time, dose: 200.0 mg/kg/injection, schedule: Q04DX003 (ip), vehicle: saline
  T/C: 100 % of control
endpoint: mean survival time, dose: 400.0 mg/kg/injection, schedule: Q04DX003 (ip), vehicle: saline
  T/C: 99 % of control

## CC(c1ccc([N+](=O)[O-])cc1)C(O)c1ccccc1 (centres undefined)
[7]
  T/C: 111 % of control
[8]
  T/C: 103 % of control
[9]
  T/C: 102 % of control

## O=S1c2ccccc2-c2ccccc21
endpoint: mean survival time, dose: 100.0 mg/kg/injection, schedule: Q04DX002 (ip), vehicle: saline with Tween-80
  T/C: 92 % of control
endpoint: mean survival time, dose: 200.0 mg/kg/injection, schedule: Q04DX002 (ip), vehicle: saline with Tween-80
  T/C: 100 % of control
endpoint: mean survival time, dose: 400.0 mg/kg/injection, schedule: Q04DX002 (ip), vehicle: saline with Tween-80
  T/C: 103 % of control

## CCOP(=O)(NCCOC)OCC
endpoint: mean survival time, dose: 25.0 mg/kg/injection, schedule: Q01DX009 (ip), vehicle: saline
  T/C: 94 % of control
endpoint: mean survival time, dose: 25.0 mg/kg/injection, schedule: Q04DX003 (ip), vehicle: saline with Tween-80
  T/C: 101 % of control
endpoint: mean survival time, dose: 50.0 mg/kg/injection, schedule: Q01DX009 (ip), vehicle: saline
  T/C: 91 % of control
endpoint: mean survival time, dose: 50.0 mg/kg/injection, schedule: Q04DX003 (ip), vehicle: saline with Tween-80
  T/C: 94 % of control
endpoint: mean survival time, dose: 100.0 mg/kg/injection, schedule: Q01DX009 (ip), vehicle: saline
  T/C: 88 % of control
[7]
  T/C: 101 % of control

## O=C1C=CC(=O)c2c(O)cccc21
endpoint: mean survival time, dose: 3.13 mg/kg/injection, schedule: Q01DX009 (ip), vehicle: saline with Tween-80
  T/C: 94 % of control
endpoint: mean survival time, dose: 6.25 mg/kg/injection, schedule: Q01DX009 (ip), vehicle: saline with Tween-80
  T/C: 92 % of control
endpoint: mean survival time, dose: 12.5 mg/kg/injection, schedule: Q04DX003 (ip), vehicle: saline with Tween-80
  T/C: 88 % of control

## NC(N)=N/N=C\c1c2ccccc2cc2ccccc12
endpoint: mean survival time, dose: 0.78 mg/kg/injection, schedule: Q01DX009 (ip), vehicle: water
  T/C: 100 % of control
endpoint: mean survival time, dose: 1.56 mg/kg/injection, schedule: Q01DX009 (ip), vehicle: other
  T/C: 101 % of control
endpoint: mean survival time, dose: 1.56 mg/kg/injection, schedule: Q01DX009 (ip), vehicle: water
  T/C: 101 % of control
endpoint: mean survival time, dose: 3.13 mg/kg/injection, schedule: Q01DX009 (ip), vehicle: other
  T/C: 100 % of control
endpoint: mean survival time, dose: 3.13 mg/kg/injection, schedule: Q01DX009 (ip), vehicle: water
  T/C: 116 % of control
endpoint: mean survival time, dose: 6.25 mg/kg/injection, schedule: Q01DX009 (ip), vehicle: other
  T/C: 106 % of control
endpoint: mean survival time, dose: 12.5 mg/kg/injection, schedule: Q01DX009 (ip), vehicle: other
  T/C: 106 % of control
endpoint: mean survival time, dose: 12.5 mg/kg/injection, schedule: Q01DX009 (ip), vehicle: water
  T/C: 105 % of control
endpoint: mean survival time, dose: 25.0 mg/kg/injection, schedule: Q01DX009 (ip), vehicle: other
  T/C: 111 % of control

## C=C(C)C1Cc2c(ccc3c2OC2COc4cc(OC)c(OC)cc4C2C3=O)O1 (centres undefined)
[4]
  T/C: 92 % of control
[7]
  T/C: 103 % of control
[5]
  T/C: 93 % of control
[8]
  T/C: 101 % of control
[6]
  T/C: 94 % of control
[9]
  T/C: 97 % of control
